Experimental data published in patent US20240352145A1, “EFFICACY OF ANTI-TROP-2-SN-38 ANTIBODY DRUG CONJUGATES FOR THERAPY OF TUMORS RELAPSED/REFRACTORY TO CHECKPOINT INHIBITORS” (Immunomedics, Inc., priority 2016, published 2024).
Values joined by “and” are separate entries in the source; they are usually repeats but may differ in a detail not shown here. Equal values may be shown once.

Tests used:
Capan-1 = experiment: Cytotoxicity (MTS), Example 6, Capan-1; assay type: cell-based, human; settings: Capan-1, 96 h
Method: (§1) One day prior to adding the ADCs, cells were harvested from tissue culture and plated into 96-well plates. […] Plates were incubated at 37° C. for 96 h. […] Growth inhibition was measured as a percent of growth relative to untreated cells using Microsoft Excel and Prism software (non-linear regression to generate sigmoidal dose response curves which yield IC50-values.

MDA-MB-231 = settings: mouse, in vivo
[1] = tested on: metastatic epithelial tumors; experiment: Phase I trial of sacituzumab govitecan (25 patients); assay type: in vivo, human
Method: The trial was designed as a standard 3+3 Phase I design, starting at a dose of 8 mg/kg per injection, with dosages given weekly for 2 weeks in a 3-week treatment cycle.
Prior to the start of each infusion, most patients received acetaminophen, anti-histamines (H1 and H2 blockers), and dexamethasone. Prophylactic use of antiemetics or anti-diarrheal medications was prohibited. Therapy consisted of 2 consecutive doses given on days 1 and 8 of a 3-week treatment cycle, with the intent to allow patients to continue treatment for up to 8 cycles (i.e., 16 treatments) unless there was unacceptable toxicity or progression. Patients showing disease stabilization or response after 8 cycles could continue treatments.
The maximum tolerated dose (MTD) was judged on the patient's tolerance to the first treatment cycle.

[2] = tested on: BxPC-3 human pancreatic tumors; experiment: BxPC-3 xenograft therapy; assay type: in vivo, mouse
Method: NCr female athymic nude (nu/nu) mice, 4 to 8 weeks old, and male Swiss-Webster mice, 10 weeks old, were purchased from Taconic Farms. Tolerability studies were performed in Cynomolgus monkeys (Macaca fascicularis; 2.5-4 kg male and female) by SNBL USA, Ltd. Animals were implanted subcutaneously with different human cancer cell lines. Tumor volume (TV) was determined by measurements in 2 dimensions using calipers, with volumes defined as: L×w^2/2, where L is the longest dimension of the tumor and w is the shortest. […] This dosing frequency reflected a consideration of the conjugate's serum half-life […], to allow a more continuous exposure to the ADC.
Statistics—Growth curves are shown as percent change in initial TV over time. Statistical analysis of tumor growth was based on area under the curve (AUC). Profiles of individual tumor growth were obtained through linear-curve modeling. An f-test was employed to determine equality of variance between groups before statistical analysis of growth curves. A 2-tailed t-test was used to assess statistical significance between the various treatment groups and controls, except for the saline control, where a 1-tailed t-test was used (significance at P≤0.05). Statistical comparisons of AUC were performed only up to the time that the first animal within a group was euthanized due to progression.

BxPC-3 = experiment: Cytotoxicity (MTS), Example 6, BxPC-3; assay type: cell-based, human; settings: BxPC-3, 96 h
Method: as §1

MDA-MB-468 TNBC tumors = experiment: MDA-MB-468 TNBC xenograft; assay type: in vivo, mouse
[3] = SN-38 release at lysosomal pH; assay type: physicochemical; settings: pH 5.3 at 37° C.
metastatic SCLC = experiment: Phase I/II, metastatic SCLC cohort; assay type: in vivo, human
[4] = update of on-going trial, 17 TNBC patients

In the case of IMMU-132, the IC50 (Capan-1) is reported as 3.5 nM, the specific therapeutic effects (MDA-MB-231) is reported as “specific therapeutic effects with IMMU-132 were not achieved” and the “Delay/adjustment 1st cycle, patients” value ([1]; 8 mg/kg, 7 patients treated) is reported as 1. The “Dose-limiting toxicity 1st cycle, patients” value ([1]; 8 mg/kg, 7 patients treated) was 0, the “patients with grade-3 diarrhea” value ([1]; 10 mg/kg dose level) was 1 and the “Delay/adjustment 1st cycle, patients” value ([1]; 10 mg/kg, 6 patients treated) was 0. For the same substance, the “Dose-limiting toxicity 1st cycle, patients” value ([1]; 10 mg/kg, 6 patients treated) was 0, the “Delay/adjustment 1st cycle, patients” value ([1]; 12 mg/kg, 9 patients treated) was 5 and the “Dose-limiting toxicity 1st cycle, patients” value ([1]; 12 mg/kg, 9 patients treated, listed as sacituzumab govitecan) was 0/9 and 0. For the same substance, the “Delay/adjustment 1st cycle, patients” value ([1]; 18 mg/kg, 3 patients treated) was 2, the “median time to progression” value ([1]; 24 patients) was 3.6 months and the “time to progression, range” value ([1]; 24 patients) was 1-12.8 months. The “febrile neutropenia, patients” value ([1]; 25 patients) was 2, the “long-term survival (15-20 months)” value ([1]; 25 patients) was roughly 25% and the “patients with >30% reduction of target lesions” value ([1]; 25 patients) was 12%. For the same substance, the “patients with SD” value ([1]; 25 patients) was 60%, the “free SN-38 as share of total SN-38, average” value ([1]; 28 30-min serum samples from 7 patients, HPLC) was 2.91±0.91% and the infusion-related adverse events ([1]; 297 infusions over 2-3 h) was “no infusion-related adverse events”. The “adverse event possibly related to treatment” value ([1]; GC patient #9, 1 dose of 10 mg/kg) was “grade 3 febrile neutropenia”, the “progressed (PD) as best response, patients” value ([1]; RECIST 1.1) was 7 and the “partial responses, patients” value ([1]; RECIST 1.1, 25 patients) was 3. For the same substance, the “stable disease as best response, patients” value ([1]; RECIST 1.1, 25 patients, listed as Sacituzumab govitecan) was 15, the “stable disease as best response, patients” value ([1]; RECIST 1.1, 25 patients, listed as sacituzumab govitecan) was “Fifteen” and the tumor shrinkage ([1]; SCLC patient who failed prior topoisomerase I inhibitor therapy) was 38%. The “median time to progression” value ([1]; advanced pancreatic ductal cancer, N=7) was 2.9 months, the tumor shrinkage ([1]; colon cancer patient who failed prior topoisomerase I inhibitor therapy) was 13% and the “intact conjugate in trough serum samples” value ([1]; drawn immediately before next dose) was “no sacituzumab govitecan could be detected”. For the same substance, the “antibody response to hRS7 IgG or SN-38” value ([1]; multiple cycles for up to 12 months) was “no antibody response to the hRS7 IgG or SN-38 was detected”, the “reduction in target lesions” value ([1]; patient 10, CRC, 5 doses of 10 mg/kg) was 23% and the “maximum reduction in target lesions” value ([1]; patient 10, CRC, after 18 doses) was 28%. For the same substance, the “plasma CEA” value ([1]; patient 10, CRC, baseline 38.5 ng/mL) was 1.6 ng/mL, the time to progression ([1]; patient 18, TNBC) was 45 weeks and the “reduction in target lesions” value ([1]; patient 18, TNBC, after 3 doses) was 13%. For the same substance, the “reduction in target lesions” value ([1]; patient 18, TNBC, after 16 doses) was 19%, the period until progression ([1]; patient 20, HRPC, 34 treatments) was 12.7 months and the “period of SD” value ([1]; patient 25, esophageal cancer, 18 then 13.5 mg/kg) was 30 weeks. The “period of disease stabilization” value ([1]; patient #11, PDC) was 15 weeks, the CA19-9 serum titer ([1]; patient #11, PDC, 10 mg/kg, after 8 doses, baseline 5880) was 2840 units/mL and the “SN-38 bound to the IgG” value ([1]; patient #25, 13.5 mg/kg) was 96.8%. For the same substance, the “free SN-38, average” value ([1]; patient #25, 13.5 mg/kg) was 105.4 ± 47.7 ng/mL, the “free SN-38G as share of total SN-38+SN-38G” value ([1]; patient #25, 13.5 mg/kg) was 11.6% and the “free SN-38G, average” value ([1]; patient #25, 13.5 mg/kg) was 13.9 ± 4.1 ng/mL. The “total SN-38, average” value ([1]; patient #25, 13.5 mg/kg, 11 peak acid-hydrolyzed samples) was 3309.8 ± 601.8 ng/mL, the “Free SN-38G” value ([1]; patient #25, 18 mg/kg) was 26.2 ng/mL and the “free SN-38 (non-hydrolyzed sample)” value ([1]; patient #25, 18 mg/kg) was 155.2 ng/mL. For the same substance, the “free SN-38G as share of total unbound SN-38+SN-38G” value ([1]; patient #25, 18 mg/kg) was 14.4%, the “free SN-38 as share of total” value ([1]; patient #25, 18 mg/kg) was 3.0% and the “total SN-38 (acid-hydrolyzed sample)” value ([1]; patient #25, 18 mg/kg) was 5,089 ng/mL. The “SN-38G as share of free SN-38 levels in serum” value ([1]; patients) was 20-40%, the “median time to progression” value ([1]; patients with SD or PR (N=18)) was 4.1 months and the “time to progression, range” value ([1]; patients with SD or PR (N=18)) was 2.6-12.8 months. For the same substance, the “patients with response or disease stabilization” value ([1]; patients with prior topoisomerase I inhibitor) was 7 of 9, the “SN-38 in serum bound to IgG” value ([1]; peak samples, 30 min after infusion) was greater than 96% and the “time to progression from onset of therapy” value (“time … of therapy” below) ([1]; responder with SCLC) was 2.9 months. For the same substance, the “time … of therapy” value ([1]; responder with TNBC) was 4.3 months, the “time … of therapy” value ([1]; responder with colon cancer) was 7.1 months and the “reduction of target lesions” value ([1]; two of nine patients with prior topoisomerase-I inhibitor therapy, listed as sacituzumab govitecan) was 28% and 38%. The “clinical benefit rate (PR+SD≥6 months)” value [1, 4] was 46%, the “overall response rate (PR)” value [1, 4] was 29% and the “tumor volume (TV)” value ([2]; day 21, equivalent amounts of ADC) was 0.24±0.11 cm^3. The “tumor volume (TV)” value ([2]; day 25) was 0.27±0.18 cm^3, the IC50 (BxPC-3) was 2.6 nM and the tumor response (MDA-MB-468 TNBC tumors; 0.12 or 0.20 mg/kg SN-38-equivalents, vs saline, irinotecan, hA20-CL2A-SN-38) was “induced significant tumor regression”. For the same substance, the “total volume [TV] five weeks after re-treatment” value (MDA-MB-468 TNBC tumors; mice progressed on hA20-CL2A-SN-38 (0.74±0.41 cm^3), then 0.2 mg/kg) was 0.14±0.14 cm^3, the “decrease in tumor size after re-treatment” value (MDA-MB-468 TNBC tumors; one animal each, tumors progressed to ~0.7 cm^3 on irinotecan) was 60% and the “time for release of 50% of the SN-38” value [3] was roughly 13 h. For the same substance, the “median OS” value (metastatic SCLC; 8 mg/kg) was 8.1 months, the “median PFS” value (metastatic SCLC; 8 mg/kg) was 2.0 months and the “median PFS” value (metastatic SCLC; 10 mg/kg) was 3.6 months. For the same substance, the “median time to progression” value (metastatic SCLC; in vivo) was 4.9 months.
